What was measured:
Type in all cases: in vivo
Kochia (Kochia scoparia) [1] = test: Test A preemergence
How it was run: (§1)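 Visual injury, scored on a 0–100 scale relative to untreated controls, was recorded about 10 d after application. Treatments were a preemergence soil spray over planted seeds or a postemergence spray on plants at the one- to two-leaf stage, 2 to 10 cm tall, all in loam soil–sand blend in the greenhouse.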

[2] = tested on: barnyardgrass (Echinochloa crus-galli); test: Test A preemergence
How it was run: as §1

[3] = tested on: giant foxtail (Setaria faberii); test: Test A preemergence
How it was run: as §1

[4] = tested on: pigweed (Amaranthus retroflexus); test: Test A preemergence
[5] = tested on: ragweed (common ragweed, Ambrosia elatior); test: Test A preemergence
How it was run: as §1

[6] = tested on: ryegrass, Italian (Italian ryegrass, Lolium multiflorum); test: Test A preemergence
How it was run: as §1

[7] = tested on: Galium (catchweed bedstraw, Galium aparine); test: Test A postemergence; conditions: postemergence, 0 to 100 scale (0 no effect, 100 complete control)
How it was run: as §1

Kochia (Kochia scoparia) [8] = test: Test A postemergence; conditions: postemergence, 0 to 100 scale (0 no effect, 100 complete control)
How it was run: as §1

[9] = tested on: barnyardgrass (Echinochloa crus-galli); test: Test A postemergence; conditions: postemergence, 0 to 100 scale (0 no effect, 100 complete control)
How it was run: as §1

[10] = tested on: blackgrass (Alopecurus myosuroides); test: Test A postemergence; conditions: postemergence, 0 to 100 scale (0 no effect, 100 complete control)
How it was run: as §1

corn (Zea mays) = test: Test A postemergence; conditions: postemergence, 0 to 100 scale (0 no effect, 100 complete control)
How it was run: as §1

[11] = tested on: giant foxtail (Setaria faberii); test: Test A postemergence; conditions: postemergence, 0 to 100 scale (0 no effect, 100 complete control)
How it was run: as §1

[12] = tested on: pigweed (Amaranthus retroflexus); test: Test A postemergence; conditions: postemergence, 0 to 100 scale (0 no effect, 100 complete control)
How it was run: as §1

[13] = tested on: ragweed (common ragweed, Ambrosia elatior); test: Test A postemergence; conditions: postemergence, 0 to 100 scale (0 no effect, 100 complete control)
How it was run: as §1

[14] = tested on: ryegrass, Italian (Italian ryegrass, Lolium multiflorum); test: Test A postemergence; conditions: postemergence, 0 to 100 scale (0 no effect, 100 complete control)
How it was run: as §1

[15] = tested on: wheat (Triticum aestivum); test: Test A postemergence; conditions: postemergence, 0 to 100 scale (0 no effect, 100 complete control)
How it was run: as §1

[16] = tested on: barnyardgrass (Echinochloa crus-galli); test: Test B flooded paddy test; conditions: Flood, 250 g ai/ha; 0 to 100 scale where 0 is no effect and 100 is complete control; 13 to 15 d
How it was run: (§2)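 Percent control, visually estimated after 13–15 d in the greenhouse on a 0–100 basis, compares treated pots with untreated ones; compound was put into paddy water 3 cm above the soil when plants had two leaves.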

[17] = tested on: ducksalad (Heteranthera limosa); test: Test B flooded paddy test; conditions: Flood, 250 g ai/ha; 0 to 100 scale where 0 is no effect and 100 is complete control; 13 to 15 d
How it was run: as §2

rice (Oryra sativa) = test: Test B flooded paddy test; conditions: Flood, 250 g ai/ha; 0 to 100 scale where 0 is no effect and 100 is complete control; 13 to 15 d
How it was run: as §2

[18] = tested on: sedge, umbrella (small-flower umbrella sedge, Cyperus difformis); test: Test B flooded paddy test; conditions: Flood, 250 g ai/ha; 0 to 100 scale where 0 is no effect and 100 is complete control; 13 to 15 d
How it was run: as §2

[19] = 125 g ai/ha, Preemergence, visual injury after approximately 10 d, 0 to 100 scale where 0 is no effect and 100 is complete control
[20] = 500 g ai/ha, preemergence, 0 to 100 scale, 0 = no effect, 100 = complete control
[21] = 125 g ai/ha, visual rating after approx. 10 d
[22] = 500 g ai/ha, visual injury, approx. 10 d

CC(C)Oc1cccc(C2CN(C)C(=O)C2C(=O)Nc2ccccc2S(C)(=O)=O)c1 (stereo not drawn) [Compound 653]
Plant response rating, Kochia (Kochia (Kochia scoparia) [1]; [19]): 0 | Plant response rating, Kochia (Kochia (Kochia scoparia) [1]; [20]): 70 | Plant response rating, Barnyardgrass [2, 19]: 90 | Plant response rating, Barnyardgrass [2, 20]: 90 | Plant response rating, Foxtail, Giant [3, 19]: 90 | Plant response rating, Foxtail, Giant [3, 20]: 100 | Plant response rating, Pigweed [4, 19]: 70 | Plant response rating, Pigweed [4, 20]: 90 | Plant response rating, Ragweed [5, 19]: 50 | Plant response rating, Ragweed [5, 20]: 80 | Plant response rating, Ryegrass, Italian [6, 19]: 70 | Plant response rating, Ryegrass, Italian [6, 20]: 70 | Plant response rating, Galium [7, 21]: 40 | Plant response rating, Galium [7, 22]: 50 | Plant response rating, Kochia (Kochia (Kochia scoparia) [8]; [21]): 0 | Plant response rating, Kochia (Kochia (Kochia scoparia) [8]; [22]): 0 | Plant response rating, Barnyardgrass [9, 21]: 60 | Plant response rating, Barnyardgrass [9, 22]: 90 | Plant response rating, Blackgrass [10, 21]: 50 | Plant response rating, Blackgrass [10, 22]: 70 | Plant response rating, Corn (corn (Zea mays); [21]): 0 | Plant response rating, Corn (corn (Zea mays); [22]): 30 | Plant response rating, Foxtail, Giant [11, 21]: 60 | Plant response rating, Foxtail, Giant [11, 22]: 90 | Plant response rating, Pigweed [12, 21]: 0 | Plant response rating, Pigweed [12, 22]: 0 | Plant response rating, Ragweed [13, 21]: 0 | Plant response rating, Ragweed [13, 22]: 0 | Plant response rating, Ryegrass, Italian [14, 21]: 40 | Plant response rating, Ryegrass, Italian [14, 22]: 60 | Plant response rating, Wheat [15, 21]: 30 | Plant response rating, Wheat [15, 22]: 60 | Plant response rating, Barnyardgrass [16]: 30 | Plant response rating, Ducksalad [17]: 40 | Plant response rating, Rice (rice (Oryra sativa)): 0 | Plant response rating, Sedge, Umbrella [18]: 0
